Earlier results, collected in patent publication US6811791B2, “Method and concentrated composition for insect and animal control” (priority 2001, dated 2004).

Conditions: classified by the EPA

CNC(=O)CSP(=S)(OC)OC [Dimethoate, dimethoate]
EPA carcinogen classification: group 3 carcinogen
